Measured values taken from PMC11604427 (Frontiers in Pharmacology, 2024).

Target: T1, Human recombinant HDAC2 enzyme (Homo sapiens, UniProt Q92769)
T1 construct: purchased Abcam
Assay: HDAC2 fluorescence enzyme inhibition assay (Boc-Lys(acetyl)-AMC)
Assay type: biochemical
Procedure: Firstly, a 96-well plate was loaded with a blend comprising 10 μL of HDAC2 enzyme solution and 50 μL of the test compounds at assorted concentrations, followed by incubation at a temperature of 37°C for a duration of 5 min. Subsequently, 10 μL of the fluorescent substrate Boc-Lys (acetyl)-AMC was added and continued for 30 min. Finally, 100 μL of developer containing trypsin and TSA was injected into each well and incubated for 20 min.

T1 sequence (Q92769 whole entry): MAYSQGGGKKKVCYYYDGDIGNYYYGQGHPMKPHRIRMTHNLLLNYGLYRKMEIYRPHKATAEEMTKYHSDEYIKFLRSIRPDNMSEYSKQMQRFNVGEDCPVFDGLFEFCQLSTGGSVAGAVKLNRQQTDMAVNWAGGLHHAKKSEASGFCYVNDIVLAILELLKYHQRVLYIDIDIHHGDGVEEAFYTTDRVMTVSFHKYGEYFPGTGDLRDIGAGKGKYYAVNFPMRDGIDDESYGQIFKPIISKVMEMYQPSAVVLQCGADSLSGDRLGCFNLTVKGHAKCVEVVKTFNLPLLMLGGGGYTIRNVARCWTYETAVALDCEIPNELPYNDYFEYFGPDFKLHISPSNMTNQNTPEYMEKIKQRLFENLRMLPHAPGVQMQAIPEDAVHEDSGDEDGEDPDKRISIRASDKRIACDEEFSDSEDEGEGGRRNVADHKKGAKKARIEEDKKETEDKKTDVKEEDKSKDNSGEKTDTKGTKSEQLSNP

Cc1ccc(O)c(C)c1-n1c(N)c(C(N)=O)c2cc(CCCCCC(=O)NO)c(C)nc21 [PKHD-5]
IC50 (fluorescence signal-based method): 2.28 ± 0.13 nM
fold inhibition of HDAC2 compared with SAHA (ratio of IC50 values versus SAHA): 4.42 fold
